Measurements from patent US20260374754A1, “N-((ISOQUINOLIN-6-YL)METHYL)-1H-PYRAZOLE-4-CARBOXAMIDE DERIVATIVES AS PLASMA KALLIKREIN INHIBITORS FOR THE TREATMENT OF HEREDITARY ANGIODEMA” (Takeda Pharmaceutical Company Limited, priority 2022, published 2026).
Structures can show the parent of a compound that is named as a salt.

The molecules below were run against human activated kallikrein enzyme (Homo sapiens, UniProt P03952) (assay: Inhibition of human activated plasma kallikrein, fluorogenic PFR-AMC substrate, 500 pM enzyme format). Conditions: 500 pM activated kallikrein; 300 μM PFR-AMC; 30 min preincubation; 10 min room temperature; pH 7.5; read-out: Primary Dose Response Assay: Average EC50.
Sequence of human activated kallikrein enzyme (P03952 391-638 limits assumed): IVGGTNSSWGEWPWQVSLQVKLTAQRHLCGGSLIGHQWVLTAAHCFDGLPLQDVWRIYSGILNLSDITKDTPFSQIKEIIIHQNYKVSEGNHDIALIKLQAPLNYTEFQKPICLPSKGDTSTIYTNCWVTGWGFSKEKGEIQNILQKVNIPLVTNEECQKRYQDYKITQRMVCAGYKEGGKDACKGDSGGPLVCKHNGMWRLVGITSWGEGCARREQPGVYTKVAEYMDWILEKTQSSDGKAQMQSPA
Sequence of human activated kallikrein enzyme (P03952 20-390 partner limits assumed): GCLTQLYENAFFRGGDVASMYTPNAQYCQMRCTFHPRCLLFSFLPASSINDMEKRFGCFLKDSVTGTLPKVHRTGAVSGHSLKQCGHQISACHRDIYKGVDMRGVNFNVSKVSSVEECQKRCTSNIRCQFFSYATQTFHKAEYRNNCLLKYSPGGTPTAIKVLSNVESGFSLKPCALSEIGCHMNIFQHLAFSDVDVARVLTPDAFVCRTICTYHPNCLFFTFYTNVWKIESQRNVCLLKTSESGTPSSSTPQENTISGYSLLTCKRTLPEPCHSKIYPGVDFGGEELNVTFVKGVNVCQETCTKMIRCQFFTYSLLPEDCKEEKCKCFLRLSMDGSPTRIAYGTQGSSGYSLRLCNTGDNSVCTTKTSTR
Format: biochemical
Description: Compounds were evaluated for inhibition of the human activated kallikrein enzyme in two formats of an assay employing a fluorogenic peptide substrate. In one assay format, the concentrations of reagents were as follows: 20 mM Tris pH 7.5, 1 mM EDTA, 150 mM sodium chloride, 0.1% PEG-400, 0.1% Triton X-100, 500 pM activated kallikrein enzyme, 300 μM Pro-Phe-Arg-7-amido-4-methylcoumarin (PFR-AMC) substrate. Prior to reaction initiation with substrate, enzyme and inhibitors were preincubated for 30 min at room temperature. After initiation with substrate, reactions were incubated for 10 min at room temperature and fluorescence emission at 460 nm from 380 nm excitation measured with a microplate reader. In another assay format, the concentrations of reagents were as follows: 20 mM Tris pH 7.5, 1 mM EDTA, 150 mM sodium chloride, 0.1% PEG-400, 0.1% Triton X-100, 5 pM activated kallikrein enzyme, 300 uM PFR-AMC substrate. Prior to reaction initiation with substrate, enzyme and inhibitors were preincubated for 30 min at room temperature. After initiation with substrate, reactions were incubated for 18 hr at room temperature and fluorescence emission at 460 nm from 380 nm excitation measured with a microplate reader.
Table 35 provides the results of the assay in the format with 500 pM activated kallikrein assay.

| SMILES | EC50 |
| --- | --- |
| Cc1cc2c(N)nccc2c(C)c1CNc1cnc2[nH]cc(Cc3ccc4ccccc4c3)c2c1 [Example 527, 5,7-dimethyl-6-(((3-(naphthalen-2-ylmethyl)-1H-pyrrolo[2,3-b]pyridin-5-yl)amino)methyl)isoquinolin-1-amine] | > 1000 nM |
| Cc1cc2c(N)nccc2c(C)c1CNS(=O)(=O)c1cnn(Cc2cn3cc(C4CC4)ccc3n2)c1 [Example 490, N-((1-amino-5,7-dimethylisoquinolin-6-yl)methyl)-1-((6-cyclopropylimidazo[1,2-a]pyridin-2-yl)methyl)-1H-pyrazole-4-sulfonamide] | 10 to 100 nM |
| Cc1cc2c(Nc3cc(OCc4ccc(CC(=O)N(C)C)cc4)ncn3)nccc2c(C)c1CN [Example I-467, 2-(4-(((6-((6-(aminomethyl)-5,7-dimethylisoquinolin-1-yl)amino)pyrimidin-4-yl)oxy)methyl)phenyl)-N,N-dimethylacetamide] | > 1000 nM |
| Cc1cc2c(N)nccc2c(C)c1CNC(=O)c1cnn(C(F)(F)c2ccccc2)c1 [Example I-472, N-((1-amino-5,7-dimethylisoquinolin-6-yl)methyl)-1-(difluoro(phenyl)methyl)-1H-pyrazole-4-carboxamide] | 100 to 1000 nM |
| Cc1cc2c(N)nccc2c(C)c1CNc1nccn2cc(Cc3ccc4ccccc4c3)nc12 [Example 525, 5,7-dimethyl-6-(((2-(naphthalen-2-ylmethyl)imidazo[1,2-a]pyrazin-8-yl)amino)methyl)isoquinolin-1-amine] | 100 to 1000 nM |
| Cc1cc2c(N)nccc2c(C)c1CNC(=O)c1cnn(Cc2ccc3cc(Cl)ccc3n2)c1 [Example 157, N-((1-amino-5,7-dimethylisoquinolin-6-yl)methyl)-1-((6-chloroquinolin-2-yl)methyl)-1H-pyrazole-4-carboxamide] | 1 to 10 nM |
| Cc1cc2c(N)nccc2c(C)c1CNC(=O)c1cnn(Cc2ccc(Cc3cccn(CC(F)(F)F)c3=O)cc2)c1 [Example 196, N-((1-amino-5,7-dimethylisoquinolin-6-yl)methyl)-1-(4-((2-oxo-1-(2,2,2-trifluoroethyl)-1,2-dihydropyridin-3-yl)methyl)benzy1)-1H-pyrazole-4-carboxamide] | 1 to 10 nM |
| Cc1cc2c(N)nccc2c(C)c1CNc1cc(OCc2cn3c(=O)n(C4CC4)ccc3n2)ncn1 [Example 397, 2-(((6-(((1-amino-5,7-dimethylisoquinolin-6-yl)methyl)amino)pyrimidin-4-yl)oxy)methyl)-6-cyclopropylimidazo[1,2-c]pyrimidin-5(6H)-one] | 10 to 100 nM |
| Cc1cc2c(N)nccc2c(C)c1CNC(=O)c1cnn(Cc2ccc(C3CC3)cc2)c1 [Example 29, N-((1-amino-5,7-dimethylisoquinolin-6-yl)methyl)-1-(4-cyclopropylbenzyl)-1H-pyrazole-4-carboxamide] | 1 to 10 nM |
| Cc1cc2c(N)nccc2c(C)c1CNc1cc(NCc2ccc(Cc3ncccc3Cl)cc2)ncn1 [Example 365, N^4-((1-amino-5,7-dimethylisoquinolin-6-yl)methyl)-N^6-(4-((3-chloropyridin-2-yl)methyl)benzyl)pyrimidine-4,6-diamine] | 1 to 10 nM |
| Cc1cc2c(N)nccc2c(C)c1CNc1ncccc1NCc1cn2cc(C3CC3)ccc2n1 [Example 506, N^2-((1-amino-5,7-dimethylisoquinolin-6-yl)methyl)-N^3-((6-cyclopropylimidazo[1,2-a]pyridin-2-yl)methyl)pyridine-2,3-diamine] | 10 to 100 nM |
| Cc1cc2c(N)nccc2c(C)c1CNC(=O)c1cnn(Cc2ccc3nccnc3c2)c1 [Example 79, N-((1-amino-5,7-dimethylisoquinolin-6-yl)methyl)-1-(quinoxalin-6-ylmethyl)-1H-pyrazole-4-carboxamide] | 1 to 10 nM |
| CCOC(=O)N(Cc1ccc(Cn2ccccc2=O)cc1)c1cc(NCc2c(C)cc3c(N)nccc3c2C)ncn1 [Example I-480, ethyl (6-(((1-amino-5,7-dimethylisoquinolin-6-yl)methyl)amino)pyrimidin-4-yl)(4-((2-oxopyridin-1(2H)-yl)methyl)benzyl)carbamate] | 100 to 1000 nM |
| Cc1cc2c(N)nccc2c(C)c1CNc1cc(NCc2cn3ccccc3n2)ncn1 [Example 321, N^4-((1-amino-5,7-dimethylisoquinolin-6-yl)methyl)-N^6-(imidazo[1,2-a]pyridin-2-ylmethyl)pyrimidine-4,6-diamine] | 1 to 10 nM |
| Cc1cc2c(N)nccc2c(C)c1CNC(=O)c1cnn(Cc2ccc(CC(N)=O)cc2)c1 [Example 231, 1-(4-(2-amino-2-oxoethyl)benzyl)-N-((1-amino-5,7-dimethylisoquinolin-6-yl)methyl)-1H-pyrazole-4-carboxamide] | 10 to 100 nM |

More lines, now with the values ahead:

| EC50 | SMILES |
| --- | --- |
| 1 to 10 nM | Cc1ncc2ccc(Cn3cc(C(=O)NCc4c(C)cc5c(N)nccc5c4C)cn3)cc2n1 [Example 16, N-((1-amino-5,7-dimethylisoquinolin-6-yl)methyl)-1-((2-methylquinazolin-7-yl)methyl)-1H-pyrazole-4-carboxamide] |
| 1 to 10 nM | Cc1cc(Cn2cc(C(=O)NCc3c(C)cc4c(N)nccc4c3C)cn2)ccc1C1CC1 [Example 2, N-((1-amino-5,7-dimethylisoquinolin-6-yl)methyl)-1-(4-cyclopropyl-3-methylbenzyl)-1H-pyrazole-4-carboxamide] |
| < 1 nM | Cc1cc2c(N)nccc2c(C)c1CNC(=O)c1cnn(Cc2ccc(Cc3nccs3)cc2)c1 [Example 166, N-((1-amino-5,7-dimethylisoquinolin-6-yl)methyl)-1-(4-(thiazol-2-ylmethyl)benzyl)-1H-pyrazole-4-carboxamide] |
| 1 to 10 nM | Cc1cc2c(N)nccc2c(C)c1CNc1cc(NCc2cc(C)c(OCC(=O)N(C)C)c(C)c2)ncn1 [Example 348, 2-(4-(((6-(((1-amino-5,7-dimethylisoquinolin-6-yl)methyl)amino)pyrimidin-4-yl)amino)methyl)-2,6-dimethylphenoxy)-N,N-dimethylacetamide] |
| < 1 nM | Cc1cc2c(N)nccc2c(C)c1CNc1cc(NCc2ccc3ncc(F)cc3c2)ncn1 [Example 334, N^4-((1-amino-5,7-dimethylisoquinolin-6-yl)methyl)-N^6-((3-fluoroquinolin-6-yl)methyl)pyrimidine-4,6-diamine] |
| < 1 nM | Cc1cc2c(N)nccc2c(C)c1CNc1cc(C(O)c2cn3cc(C4CC4)ccc3n2)ncn1 (centres unmarked) [Example 406, (6-(((1-amino-5,7-dimethylisoquinolin-6-yl)methyl)amino)pyrimidin-4-yl)(6-cyclopropylimidazo[1,2-a]pyridin-2-yl)methanol] |
| < 1 nM | Cc1cnn(Cc2ccc(Cn3cc(C(=O)NCc4c(C)cc5c(N)nccc5c4C)c(C(F)(F)F)n3)cc2)c1 [Example 184, N-((1-amino-5,7-dimethylisoquinolin-6-yl)methyl)-1-(4-((4-methyl-1H-pyrazol-1-yl)methyl)benzyl)-3-(trifluoromethyl)-1H-pyrazole-4-carboxamide] |
| < 1 nM | Cc1cc2c(N)nccc2c(C)c1CNC(=O)c1cnn(Cc2cn3cc(C4CC4)ccc3n2)c1 [Example 99, N-((1-amino-5,7-dimethylisoquinolin-6-yl)methyl)-1-((6-cyclopropylimidazo[1,2-a]pyridin-2-yl)methyl)-1H-pyrazole-4-carboxamide] |
| 1 to 10 nM | Cc1ccc2ncc(COc3cc(NCc4c(C)cc5c(N)nccc5c4C)ncn3)cc2c1 [Example 372, 5,7-dimethyl-6-(((6-((6-methylquinolin-3-yl)methoxy)pyrimidin-4-yl)amino)methyl)isoquinolin-1-amine formic acid salt] |
| 1 to 10 nM | Cc1cc2c(N)nccc2c(C)c1CNC(=O)c1cnn(Cc2cn3c(C4CC4)cccc3n2)c1 [Example 137, N-((1-amino-5,7-dimethylisoquinolin-6-yl)methyl)-1-((5-cyclopropylimidazo[1,2-a]pyridin-2-yl)methyl)-1H-pyrazole-4-carboxamide] |
| < 1 nM | Cc1cc2c(N)nccc2c(C)c1CNC(=O)c1cnn(Cc2cn3c(C)cccc3n2)c1 [Example 105, N-((1-amino-5,7-dimethylisoquinolin-6-yl)methyl)-1-((5-methylimidazo[1,2-a]pyridin-2-yl)methyl)-1H-pyrazole-4-carboxamide] |
| < 1 nM | Cc1cc2c(N)nccc2c(C)c1CNc1cc(OCc2cn3cc(C4CC4)cnc3n2)nc(CCC(=O)O)n1 [Example 294, 3-(4-(((1-amino-5,7-dimethylisoquinolin-6-yl)methyl)amino)-6-((6-cyclopropylimidazo[1,2-a]pyrimidin-2-yl)methoxy)pyrimidin-2-yl)propanoic acid] |
| < 1 nM | Cc1cc2c(N)nccc2c(C)c1CNc1cc(N(C)Cc2ccc(Cn3cccn3)cc2)cnn1 [Example 235, N5-(4-((1H-pyrazol-1-yl)methyl)benzyl)-N3-((1-amino-5,7-dimethylisoquinolin-6-yl)methyl)-N5-methylpyridazine-3,5-diamine] |
| < 1 nM | CC(=O)NC1(c2ccc(Cn3cc(C(=O)NCc4c(C)cc5c(N)nccc5c4C)cn3)cc2)CC1 [Example 19, 1-(4-(1-acetamidocyclopropyl)benzyl)-N-((1-amino-5,7-dimethylisoquinolin-6-yl)methyl)-1H-pyrazole-4-carboxamide] |
